How the values were obtained:
ZEAMX (Corn, Field) = test: Preemergence herbicidal evaluation; type: in vivo, Zea mays; details: rated 4-5 weeks after treatment
How it was run: (§1)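 Rating at 4–5 wk post-spray on a 0–9 visual scale vs control. Application: aqueous acetone, ~0.0156–0.500 kg/ha, to soil surface after seeding, preemergence.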

[1] = system: TRZAWR (Wheat, Winter, cv Riband); test: Preemergence herbicidal evaluation; type: in vivo, Triticum aestivum; details: rated 4-5 weeks after treatment
How it was run: as §1

[2] = system: IPOHE (Morningglory, Ivyleaf); test: Preemergence herbicidal evaluation; type: in vivo, Ipomoea hederacea; details: rated 4-5 weeks after treatment
How it was run: as §1

[3] = system: IPOHE (Morningglory, Ivyleaf); test: Postemergence herbicidal evaluation; type: in vivo, Ipomoea hederacea; details: postemergence
How it was run: (§2)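 Visual 0–9 rating versus control (stand, vigor, malformation, size, chlorosis, overall appearance), taken four to five weeks post-spray. Two-week-old seedlings received roughly 0.0156–0.500 kg/ha active in acetone/water (50/50) with 0.5% TWEEN 20 via nozzle at 40 psi.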

CASOB (Sicklepod) [4] = test: Preemergence herbicidal evaluation; type: in vivo, Cassia obtusifolia; details: rated 4-5 weeks after treatment
How it was run: as §1

ECHCG (Barnyardgrass) = test: Preemergence herbicidal evaluation; type: in vivo, Echinochloa crus-galli; details: rated 4-5 weeks after treatment
How it was run: as §1

CASOB (Sicklepod) [5] = test: Postemergence herbicidal evaluation; type: in vivo, Cassia obtusifolia; details: postemergence
How it was run: as §2

GALAP (Galium) = test: Postemergence herbicidal evaluation; type: in vivo, Galium aparine; details: postemergence
How it was run: as §2

[6] = system: SAGPY (Arrowhead (Pygmaea)); test: Preemergence weed control under flooded paddy conditions; type: in vivo, Sagittaria pygmaea; details: rated 3-4 weeks after treatment
How it was run: (§3)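 Seeds or propagules sown in top 0.5 cm of silt loam soil, flooded 1.5 to 3 cm above surface throughout. Compound in 50/50 v/v aqueous/acetone pipetted into flood water at about 0.0313 to 0.500 kg/ha. Visual 0-9 rating versus control after three to four weeks in greenhouse.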

AMBEL (Ragweed, Common) = test: Postemergence herbicidal evaluation; type: in vivo, Ambrosia artemisifolia; details: postemergence
How it was run: as §2

ABUTH (Velvetleaf) = test: Preemergence herbicidal evaluation; type: in vivo, Abutilon theophrasti; details: rated 4-5 weeks after treatment
How it was run: as §1

MOOVA (Monochoria) = test: Preemergence weed control under flooded paddy conditions; type: in vivo, Monochoria vaginalis; details: rated 3-4 weeks after treatment
How it was run: as §3

[7] = system: GLXMAW (Soybean, Williams); test: Preemergence herbicidal evaluation; type: in vivo, Glycine max, (L.) Merr. cv Williams; details: rated 4-5 weeks after treatment
How it was run: as §1

Structure (SMILES): C#CC(C)N1C(=O)CSC1=Nc1cc(-n2c(=O)cc(C(F)(F)F)n(C)c2=O)c(F)cc1Cl (stereo not shown) [Compound 165, 3-{4-Chloro-2-fluoro-5-{[3-(1-methyl-2-propynyl)-4-oxo-2-thiazolidinylidene]amino}phenyl}-1-methyl-6-(trifluoromethyl)-2,4(1H,3H)-pyrimidinedione]
- Preemergence herbicidal rating ZEAMX (ZEAMX (Corn, Field); 0.0156 kg/ha): 0.0
- Preemergence herbicidal rating ZEAMX (ZEAMX (Corn, Field); 0.0313 kg/ha): 0.0
- Preemergence herbicidal rating ZEAMX (ZEAMX (Corn, Field); 0.0625 kg/ha): 1.0
- Preemergence herbicidal rating ZEAMX (ZEAMX (Corn, Field); 0.1250 kg/ha): 1.0
- Preemergence herbicidal rating ZEAMX (ZEAMX (Corn, Field); 0.2500 kg/ha): 4.0
- Preemergence herbicidal rating ZEAMX (ZEAMX (Corn, Field); 0.5000 kg/ha): 7.0
- Preemergence herbicidal rating TRZAWR ([1]; 0.0156 kg/ha): 0.0
- Preemergence herbicidal rating TRZAWR ([1]; 0.0313 kg/ha): 0.0
- Preemergence herbicidal rating TRZAWR ([1]; 0.0625 kg/ha): 0.0
- Preemergence herbicidal rating TRZAWR ([1]; 0.1250 kg/ha): 1.0
- Preemergence herbicidal rating TRZAWR ([1]; 0.2500 kg/ha): 2.0
- Preemergence herbicidal rating TRZAWR ([1]; 0.5000 kg/ha): 4.0
- Preemergence herbicidal rating IPOHE ([2]; 0.0156 kg/ha): 0.0
- Preemergence herbicidal rating IPOHE ([2]; 0.0313 kg/ha): 0.0
- Preemergence herbicidal rating IPOHE ([2]; 0.1250 kg/ha): 2.0
- Preemergence herbicidal rating IPOHE ([2]; 0.2500 kg/ha): 9.0
- Preemergence herbicidal rating IPOHE ([2]; 0.5000 kg/ha): 9.0
- herbicidal rating IPOHE ([3]; rate 0.0156 kg/ha): 9.0
- herbicidal rating IPOHE ([3]; rate 0.0313 kg/ha): 9.0
- herbicidal rating IPOHE ([3]; rate 0.0625 kg/ha): 9.0
- herbicidal rating IPOHE ([3]; rate 0.1250 kg/ha): 9.0
- Preemergence herbicidal rating CASOB (CASOB (Sicklepod) [4]; 0.0313 kg/ha): 0.0
- Preemergence herbicidal rating CASOB (CASOB (Sicklepod) [4]; 0.0625 kg/ha): 0.0
- Preemergence herbicidal rating CASOB (CASOB (Sicklepod) [4]; 0.1250 kg/ha): 1.0
- Preemergence herbicidal rating CASOB (CASOB (Sicklepod) [4]; 0.2500 kg/ha): 7.0
- Preemergence herbicidal rating CASOB (CASOB (Sicklepod) [4]; 0.5000 kg/ha): 7.0
- Preemergence herbicidal rating ECHCG (ECHCG (Barnyardgrass); 0.0156 kg/ha): 0.0
- Preemergence herbicidal rating ECHCG (ECHCG (Barnyardgrass); 0.0313 kg/ha): 0.0
- Preemergence herbicidal rating ECHCG (ECHCG (Barnyardgrass); 0.0625 kg/ha): 0.0
- Preemergence herbicidal rating ECHCG (ECHCG (Barnyardgrass); 0.1250 kg/ha): 3.0
- Preemergence herbicidal rating ECHCG (ECHCG (Barnyardgrass); 0.2500 kg/ha): 6.0
- Preemergence herbicidal rating ECHCG (ECHCG (Barnyardgrass); 0.5000 kg/ha): 7.0
- herbicidal rating CASOB (CASOB (Sicklepod) [5]; rate 0.0156 kg/ha): 0.0
- herbicidal rating CASOB (CASOB (Sicklepod) [5]; rate 0.0313 kg/ha): 2.0
- herbicidal rating CASOB (CASOB (Sicklepod) [5]; rate 0.0625 kg/ha): 3.0
- herbicidal rating CASOB (CASOB (Sicklepod) [5]; rate 0.1250 kg/ha): 3.0
- herbicidal rating GALAP (GALAP (Galium); rate 0.0156 kg/ha): 0.0
- herbicidal rating GALAP (GALAP (Galium); rate 0.0313 kg/ha): 1.0
- herbicidal rating GALAP (GALAP (Galium); rate 0.0625 kg/ha): 4.0
- herbicidal rating GALAP (GALAP (Galium); rate 0.1250 kg/ha): 5.0
- herbicidal effect rating, SAGPY ([6]; 0.0313 kg/ha): 4.0
- herbicidal effect rating, SAGPY ([6]; 0.0625 kg/ha): 5.0
- herbicidal effect rating, SAGPY ([6]; 0.1250 kg/ha): 4.0
- herbicidal effect rating, SAGPY ([6]; 0.2500 kg/ha): 7.0
- herbicidal rating AMBEL (AMBEL (Ragweed, Common); rate 0.0156 kg/ha): 2.0
- herbicidal rating AMBEL (AMBEL (Ragweed, Common); rate 0.0313 kg/ha): 6.0
- herbicidal rating AMBEL (AMBEL (Ragweed, Common); rate 0.0625 kg/ha): 7.0
- herbicidal rating AMBEL (AMBEL (Ragweed, Common); rate 0.1250 kg/ha): 9.0
- Preemergence herbicidal rating ABUTH (ABUTH (Velvetleaf); 0.0156 kg/ha): 0.0
- Preemergence herbicidal rating ABUTH (ABUTH (Velvetleaf); 0.0313 kg/ha): 0.0
- Preemergence herbicidal rating ABUTH (ABUTH (Velvetleaf); 0.0625 kg/ha): 0.0
- Preemergence herbicidal rating ABUTH (ABUTH (Velvetleaf); 0.1250 kg/ha): 9.0
- Preemergence herbicidal rating ABUTH (ABUTH (Velvetleaf); 0.2500 kg/ha): 9.0
- Preemergence herbicidal rating ABUTH (ABUTH (Velvetleaf); 0.5000 kg/ha): 9.0
- herbicidal effect rating, MOOVA (MOOVA (Monochoria); 0.0313 kg/ha): 9.0
- herbicidal effect rating, MOOVA (MOOVA (Monochoria); 0.0625 kg/ha): 9.0
- herbicidal effect rating, MOOVA (MOOVA (Monochoria); 0.1250 kg/ha): 9.0
- herbicidal effect rating, MOOVA (MOOVA (Monochoria); 0.2500 kg/ha): 9.0
- Preemergence herbicidal rating GLXMAW ([7]; 0.0156 kg/ha): 0.0
- Preemergence herbicidal rating GLXMAW ([7]; 0.0313 kg/ha): 0.0
- Preemergence herbicidal rating GLXMAW ([7]; 0.0625 kg/ha): 4.0
- Preemergence herbicidal rating GLXMAW ([7]; 0.1250 kg/ha): 4.0
- Preemergence herbicidal rating GLXMAW ([7]; 0.2500 kg/ha): 5.0
- Preemergence herbicidal rating GLXMAW ([7]; 0.5000 kg/ha): 6.0

Structure (SMILES): CN1C(=O)C(CC(=O)NO)SC1=Nc1cc(-n2c(=O)cc(C(F)(F)F)n(C)c2=O)c(F)cc1Cl (stereo not shown) [Compound 162, 2-{{2-Chloro-5-[3,6-dihydro-3-methyl-2,6-dioxo-4-(trifluoromethyl)-1(2H)-pyrimidinyl]-4-fluorophenyl}imino}-3-methyl-4-oxo-5-thiazolidineacetohydroxamic acid]
- Preemergence herbicidal rating ZEAMX (ZEAMX (Corn, Field); 0.0156 kg/ha): 6.0
- Preemergence herbicidal rating ZEAMX (ZEAMX (Corn, Field); 0.0313 kg/ha): 7.0
- Preemergence herbicidal rating ZEAMX (ZEAMX (Corn, Field); 0.0625 kg/ha): 9.0
- Preemergence herbicidal rating ZEAMX (ZEAMX (Corn, Field); 0.1250 kg/ha): 9.0
- Preemergence herbicidal rating ZEAMX (ZEAMX (Corn, Field); 0.2500 kg/ha): 9.0
- Preemergence herbicidal rating TRZAWR ([1]; 0.0156 kg/ha): 0.0
- Preemergence herbicidal rating TRZAWR ([1]; 0.0313 kg/ha): 3.0
- Preemergence herbicidal rating TRZAWR ([1]; 0.0625 kg/ha): 7.0
- Preemergence herbicidal rating TRZAWR ([1]; 0.1250 kg/ha): 7.0
- Preemergence herbicidal rating TRZAWR ([1]; 0.2500 kg/ha): 9.0
- Preemergence herbicidal rating IPOHE ([2]; 0.0156 kg/ha): 0.0
- Preemergence herbicidal rating IPOHE ([2]; 0.0313 kg/ha): 0.0
- Preemergence herbicidal rating IPOHE ([2]; 0.0625 kg/ha): 4.0
- Preemergence herbicidal rating IPOHE ([2]; 0.1250 kg/ha): 9.0
- Preemergence herbicidal rating IPOHE ([2]; 0.2500 kg/ha): 9.0
- herbicidal rating IPOHE ([3]; rate 0.0156 kg/ha): 9.0
- herbicidal rating IPOHE ([3]; rate 0.0313 kg/ha): 9.0
- herbicidal rating IPOHE ([3]; rate 0.0625 kg/ha): 9.0
- Preemergence herbicidal rating CASOB (CASOB (Sicklepod) [4]; 0.0156 kg/ha): 0.0
- Preemergence herbicidal rating CASOB (CASOB (Sicklepod) [4]; 0.0625 kg/ha): 0.0
- Preemergence herbicidal rating CASOB (CASOB (Sicklepod) [4]; 0.1250 kg/ha): 0.0
- Preemergence herbicidal rating CASOB (CASOB (Sicklepod) [4]; 0.2500 kg/ha): 4.0
- Preemergence herbicidal rating ECHCG (ECHCG (Barnyardgrass); 0.0156 kg/ha): 1.0
- Preemergence herbicidal rating ECHCG (ECHCG (Barnyardgrass); 0.0313 kg/ha): 4.0
- Preemergence herbicidal rating ECHCG (ECHCG (Barnyardgrass); 0.0625 kg/ha): 8.0
- Preemergence herbicidal rating ECHCG (ECHCG (Barnyardgrass); 0.1250 kg/ha): 9.0
- Preemergence herbicidal rating ECHCG (ECHCG (Barnyardgrass); 0.2500 kg/ha): 9.0
- herbicidal rating CASOB (CASOB (Sicklepod) [5]; rate 0.0156 kg/ha): 0.0
- herbicidal rating CASOB (CASOB (Sicklepod) [5]; rate 0.0313 kg/ha): 0.0
- herbicidal rating CASOB (CASOB (Sicklepod) [5]; rate 0.0625 kg/ha): 2.0
- herbicidal rating GALAP (GALAP (Galium); rate 0.0156 kg/ha): 0.0
- herbicidal rating GALAP (GALAP (Galium); rate 0.0313 kg/ha): 3.0
- herbicidal rating GALAP (GALAP (Galium); rate 0.0625 kg/ha): 6.0
- herbicidal effect rating, SAGPY ([6]; 0.0313 kg/ha): 0.0
- herbicidal effect rating, SAGPY ([6]; 0.0625 kg/ha): 3.0
- herbicidal effect rating, SAGPY ([6]; 0.1250 kg/ha): 3.0
- herbicidal effect rating, SAGPY ([6]; 0.2500 kg/ha): 3.0
- herbicidal rating AMBEL (AMBEL (Ragweed, Common); rate 0.0156 kg/ha): 9.0
- herbicidal rating AMBEL (AMBEL (Ragweed, Common); rate 0.0313 kg/ha): 9.0
- herbicidal rating AMBEL (AMBEL (Ragweed, Common); rate 0.0625 kg/ha): 9.0
- Preemergence herbicidal rating ABUTH (ABUTH (Velvetleaf); 0.0156 kg/ha): 9.0
- Preemergence herbicidal rating ABUTH (ABUTH (Velvetleaf); 0.0313 kg/ha): 9.0
- Preemergence herbicidal rating ABUTH (ABUTH (Velvetleaf); 0.0625 kg/ha): 9.0
- Preemergence herbicidal rating ABUTH (ABUTH (Velvetleaf); 0.1250 kg/ha): 9.0
- Preemergence herbicidal rating ABUTH (ABUTH (Velvetleaf); 0.2500 kg/ha): 9.0
- herbicidal effect rating, MOOVA (MOOVA (Monochoria); 0.0313 kg/ha): 7.0
- herbicidal effect rating, MOOVA (MOOVA (Monochoria); 0.0625 kg/ha): 7.0
- herbicidal effect rating, MOOVA (MOOVA (Monochoria); 0.1250 kg/ha): 7.0
- herbicidal effect rating, MOOVA (MOOVA (Monochoria); 0.2500 kg/ha): 9.0
- Preemergence herbicidal rating GLXMAW ([7]; 0.0156 kg/ha): 2.0
- Preemergence herbicidal rating GLXMAW ([7]; 0.0313 kg/ha): 2.0
- Preemergence herbicidal rating GLXMAW ([7]; 0.0625 kg/ha): 2.0
- Preemergence herbicidal rating GLXMAW ([7]; 0.1250 kg/ha): 5.0
- Preemergence herbicidal rating GLXMAW ([7]; 0.2500 kg/ha): 9.0
